Test results reported in article PMC10620772, “Design, synthesis, and biological evaluation of new pyrimidine-5-carbonitrile derivatives as novel anti-cancer, dual EGFR^WT/COX-2 inhibitors with docking studies” (RSC Advances, 2023).

Assays:
Type in all cases: cell-based, human
CCRF-CEM = experiment: NCI60 antitumor screening; details: 10 μM one-dose
HL-60(TB) = experiment: NCI60 antitumor screening; details: 10 μM one-dose
K-562 = experiment: NCI60 antitumor screening; details: 10 μM one-dose
MOLT-4 = experiment: NCI60 antitumor screening; details: 10 μM one-dose
RPMI-8226 = experiment: NCI60 antitumor screening; details: 10 μM one-dose
SR = experiment: NCI60 antitumor screening; details: 10 μM one-dose
A549/ATCC = experiment: NCI60 antitumor screening; details: 10 μM one-dose
EKVX = experiment: NCI60 antitumor screening; details: 10 μM one-dose
HOP-62 = experiment: NCI60 antitumor screening; details: 10 μM one-dose
HOP-92 = experiment: NCI60 antitumor screening; details: 10 μM one-dose
NCI-H226 = experiment: NCI60 antitumor screening; details: 10 μM one-dose
NCI-H23 = experiment: NCI60 antitumor screening; details: 10 μM one-dose
NCI-H322M = experiment: NCI60 antitumor screening; details: 10 μM one-dose
NCI-H460 = experiment: NCI60 antitumor screening; details: 10 μM one-dose
NCI-H522 = experiment: NCI60 antitumor screening; details: 10 μM one-dose
COLO 205 = experiment: NCI60 antitumor screening; details: 10 μM one-dose
HCC-2998 = experiment: NCI60 antitumor screening; details: 10 μM one-dose
HCT-116 = experiment: NCI60 antitumor screening; details: 10 μM one-dose
HCT-15 = experiment: NCI60 antitumor screening; details: 10 μM one-dose
HT29 = experiment: NCI60 antitumor screening; details: 10 μM one-dose
KM12 = experiment: NCI60 antitumor screening; details: 10 μM one-dose
SW-620 = experiment: NCI60 antitumor screening; details: 10 μM one-dose
SF-268 = experiment: NCI60 antitumor screening; details: 10 μM one-dose
SF-295 = experiment: NCI60 antitumor screening; details: 10 μM one-dose
SF-539 = experiment: NCI60 antitumor screening; details: 10 μM one-dose
SNB-19 = experiment: NCI60 antitumor screening; details: 10 μM one-dose
SNB-75 = experiment: NCI60 antitumor screening; details: 10 μM one-dose
U251 = experiment: NCI60 antitumor screening; details: 10 μM one-dose
LOX IMVI = experiment: NCI60 antitumor screening; details: 10 μM one-dose
MALME-3M = experiment: NCI60 antitumor screening; details: 10 μM one-dose
M14 = experiment: NCI60 antitumor screening; details: 10 μM one-dose
MDA-MB-435 = experiment: NCI60 antitumor screening; details: 10 μM one-dose
SK-MEL-2 = experiment: NCI60 antitumor screening; details: 10 μM one-dose
SK-MEL-28 = experiment: NCI60 antitumor screening; details: 10 μM one-dose
SK-MEL-5 = experiment: NCI60 antitumor screening; details: 10 μM one-dose
UACC-257 = experiment: NCI60 antitumor screening; details: 10 μM one-dose
UACC-62 = experiment: NCI60 antitumor screening; details: 10 μM one-dose
IGROV1 = experiment: NCI60 antitumor screening; details: 10 μM one-dose
OVCAR-3 = experiment: NCI60 antitumor screening; details: 10 μM one-dose
OVCAR-4 = experiment: NCI60 antitumor screening; details: 10 μM one-dose
OVCAR-5 = experiment: NCI60 antitumor screening; details: 10 μM one-dose
OVCAR-8 = experiment: NCI60 antitumor screening; details: 10 μM one-dose
NCI/ADR-RES = experiment: NCI60 antitumor screening; details: 10 μM one-dose
SK-OV-3 = experiment: NCI60 antitumor screening; details: 10 μM one-dose
786–0 = experiment: NCI60 antitumor screening; details: 10 μM one-dose
A498 = experiment: NCI60 antitumor screening; details: 10 μM one-dose
ACHN = experiment: NCI60 antitumor screening; details: 10 μM one-dose
CAKI-1 = experiment: NCI60 antitumor screening; details: 10 μM one-dose
RXF 393 = experiment: NCI60 antitumor screening; details: 10 μM one-dose
SN12C = experiment: NCI60 antitumor screening; details: 10 μM one-dose
TK-10 = experiment: NCI60 antitumor screening; details: 10 μM one-dose
UO-31 = experiment: NCI60 antitumor screening; details: 10 μM one-dose
PC-3 = experiment: NCI60 antitumor screening; details: 10 μM one-dose
DU-145 = experiment: NCI60 antitumor screening; details: 10 μM one-dose
MCF7 = experiment: NCI60 antitumor screening; details: 10 μM one-dose
MDA-MB-231/ATCC = experiment: NCI60 antitumor screening; details: 10 μM one-dose
HS 578T = experiment: NCI60 antitumor screening; details: 10 μM one-dose
BT-549 = experiment: NCI60 antitumor screening; details: 10 μM one-dose
T-47D = experiment: NCI60 antitumor screening; details: 10 μM one-dose
MDA-MB-468 = experiment: NCI60 antitumor screening; details: 10 μM one-dose
NCI60 cell lines panel = experiment: NCI60 antitumor screening, full panel; details: 10 μM one-dose, mean over NCI60
Protocol: The National Cancer Institute (NCI), Bethesda, Maryland, United States, selected all of the novel synthesized compounds (2b–d, 3a–d and 4a–p) for in vitro antitumor screening at a single concentration of 10 μM toward the NCI60 cell lines panel covering leukaemia, non-small cell lungs, colon, central nervous system (CNS), melanoma, ovarian, renal, prostate, and breast cancer cells.[32–35] The data were reported as a mean graph of the percent growth of the treated cell lines and expressed as percentage growth inhibition (GI%) in Table 1 and ESI 1.
(2) The molar concentration of the compound responsible for total growth inhibition, also known as total growth inhibition (TGI).
Regarding subpanel selectivity toward certain cancer type, the method of determining a compound's selectivity index is to divide the full panel MG-MID (μM) value by each single subpanel. Values above six indicate high selectivity against the subpanel; moderate selectivity is denoted by values between three and six. Conversely, compounds are termed nonselective if their selectivity is less than three.[30,37]

Cc1ccc(CSc2nc(-c3ccc(F)cc3)c(C#N)c(=O)[nH]2)cc1 [2d, 4-(4-Fluorophenyl)-2-((4-methylbenzyl)thio)-6-oxo-1,6-dihydropyrimidine-5-carbonitrile]
10.82%: GI% (MCF7)
15.77%: GI% (HCT-15)
13.50%: GI% (T-47D)
10.72%: GI% (HT29)
10.16%: GI% (A549/ATCC)
43.38%: GI% (HL-60(TB))
15.75%: GI% (BT-549)
12.91%: GI% (NCI-H522)
11.64%: GI% (MOLT-4)
— (GI% < 10): GI% (CCRF-CEM) | GI% (K-562) | GI% (RPMI-8226) | GI% (SR) | GI% (EKVX) | GI% (HOP-62) | GI% (HOP-92) | GI% (NCI-H226) | GI% (NCI-H23) | GI% (NCI-H322M) | GI% (NCI-H460) | GI% (COLO 205) | GI% (HCC-2998) | GI% (HCT-116) | GI% (KM12) | GI% (SW-620) | GI% (SF-268) | GI% (SF-295) | GI% (SF-539) | GI% (SNB-19) | GI% (SNB-75) | GI% (U251) | GI% (LOX IMVI) | GI% (MALME-3M) | GI% (M14) | GI% (MDA-MB-435) | GI% (SK-MEL-2) | GI% (SK-MEL-28) | GI% (SK-MEL-5) | GI% (UACC-257) | GI% (UACC-62) | GI% (IGROV1) | GI% (OVCAR-3) | GI% (OVCAR-4) | GI% (OVCAR-5) | GI% (OVCAR-8) | GI% (NCI/ADR-RES) | GI% (SK-OV-3) | GI% (786–0) | GI% (A498) | GI% (ACHN) | GI% (CAKI-1) | GI% (RXF 393) | GI% (SN12C) | GI% (TK-10) | GI% (UO-31) | GI% (PC-3) | GI% (DU-145) | GI% (MDA-MB-231/ATCC) | GI% (HS 578T) | GI% (MDA-MB-468) | Mean GI% (NCI60 cell lines panel)

N#Cc1c(Cl)nc(SCc2ccc(F)cc2)nc1-c1ccc(F)cc1 [3b, 4-Chloro-2-((4-fluorobenzyl)thio)-6-(4-fluorophenyl) pyrimidine-5-carbonitrile]
49.83%: GI% (HL-60(TB))
30.20%: GI% (K-562)
— (GI% < 10): GI% (RPMI-8226) | GI% (SR) | GI% (A549/ATCC) | GI% (HOP-62) | GI% (NCI-H23) | GI% (NCI-H322M) | GI% (NCI-H460) | GI% (COLO 205) | GI% (HCC-2998) | GI% (KM12) | GI% (SW-620) | GI% (SF-268) | GI% (SF-539) | GI% (SNB-19) | GI% (SNB-75) | GI% (U251) | GI% (LOX IMVI) | GI% (MALME-3M) | GI% (M14) | GI% (MDA-MB-435) | GI% (SK-MEL-2) | GI% (SK-MEL-28) | GI% (UACC-257) | GI% (IGROV1) | GI% (OVCAR-3) | GI% (OVCAR-4) | GI% (OVCAR-5) | GI% (SK-OV-3) | GI% (786–0) | GI% (A498) | GI% (ACHN) | GI% (CAKI-1) | GI% (TK-10) | GI% (PC-3) | GI% (DU-145) | GI% (MDA-MB-231/ATCC) | GI% (HS 578T) | GI% (BT-549) | GI% (MDA-MB-468) | Mean GI% (NCI60 cell lines panel)
13.00%: GI% (HCT-15)
28.68%: GI% (NCI-H226)
10.91%: GI% (EKVX)
13.45%: GI% (NCI/ADR-RES)
13.95%: GI% (UACC-62)
13.30%: GI% (CCRF-CEM)
12.89%: GI% (UO-31)
10.29%: GI% (RXF 393)
19.06%: GI% (SN12C)
17.40%: GI% (MCF7)
33.18%: GI% (T-47D)
25.21%: GI% (HOP-92)
10.81%: GI% (OVCAR-8)
13.44%: GI% (HT29)
25.38%: GI% (NCI-H522)
19.35%: GI% (MOLT-4)
13.82%: GI% (SK-MEL-5)
18.51%: GI% (HCT-116)
10.01%: GI% (SF-295)
